According to DBAASP:
≈ marks a conversion by molar mass, not a printed value.

Key:
Test in all cases: ≥ marks a high value that may be exact or a test limit, other limits are often not marked, values filed in µg/mL are converted to µM
[1] = system: Escherichia coli
[2] = system: Salmonella enterica subsp. enterica serovar Enteritidis
[3] = system: Listeria innocua
[4] = system: Micrococcus luteus
[5] = system: Pseudomonas aeruginosa Ps4
[6] = system: Staphylococcus aureus ATCC 2592
[7] = system: Candida albicans ATCC 2002
[8] = system: Escherichia coli ATCC 25922
[9] = system: Enterococcus faecalis ATCC 29212
[10] = system: Leuconostoc lactis
[11] = system: Staphylococcus aureus
[12] = system: Staphylococcus epidermidis
[13] = system: Bacillus cereus
[14] = system: Streptococcus uberis
[15] = system: Pasteurella multocida
[16] = system: Candida albicans
[17] = system: Bacillus subtilis
[18] = system: Staphylococcus aureus ATCC 29213
[19] = system: Micrococcus luteus A270
[20] = system: Staphylococcus aureus ATCC 25923

## CC(C)C[C@H](NC(=O)[C@H](C)NC(=O)[C@H](CC(N)=O)NC(=O)[C@H](C)NC(=O)[C@@H](NC(=O)CNC(=O)[C@H](C)NC(=O)[C@@H](NC(=O)[C@@H](NC(=O)[C@H](CCCCN)NC(=O)[C@H](CCC(N)=O)NC(=O)[C@H](Cc1ccccc1)NC(=O)[C@H](CC(=O)O)NC(=O)[C@H](C)NC(=O)[C@H](CCC(N)=O)NC(=O)[C@H](CC(C)C)NC(=O)[C@@H](NC(=O)[C@@H]1CCCN1C(=O)[C@@H](NC(=O)[C@H](Cc1ccccc1)NC(=O)[C@@H](N)Cc1ccccc1)[C@@H](C)O)C(C)C)C(C)C)C(C)C)C(C)C)C(=O)N[C@@H](C)C(=O)N[C@@H](Cc1cnc[nH]1)C(=O)N[C@@H](CCCN=C(N)N)C(=O)N[C@@H](Cc1ccc(O)cc1)C(=O)N[C@@H](Cc1cnc[nH]1)C(=O)O [FFTPVLQADFQKVVAGVANALAHRYH]
[1]
  MIC: 73 µM (≈ 212 µg/mL)
[2]
  MIC: ≥ 73 µM
[3]
  MIC: ≥ 73 µM
[4]
  MIC: ≥ 85 µM

## CC[C@H](C)[C@H](NC(=O)[C@H](CC(N)=O)NC(=O)[C@H](CCCN=C(N)N)NC(=O)[C@H](CCC(N)=O)NC(=O)[C@H](Cc1c[nH]c2ccccc12)NC(=O)[C@@H](N)Cc1ccccc1)C(=O)N[C@@H](CCCN=C(N)N)C(=O)N[C@@H](CCCCN)C(=O)N[C@H](C(=O)N[C@@H](CCCCN)C(=O)N[C@@H](CCCCN)C(N)=O)C(C)C [FWQRNIRKVKK]
[5]
  MIC: ≥ 166 µM

## CC[C@H](C)[C@H](NC(=O)[C@@H](NC(=O)[C@@H]1CCCN1C(=O)[C@H](CC(C)C)NC(=O)[C@@H](N)Cc1ccccc1)[C@@H](C)CC)C(=O)N[C@@H](C)C(=O)N[C@@H](CCCCN)C(=O)N[C@@H](CC(C)C)C(=O)N[C@@H](CC(C)C)C(=O)NCC(=O)NCC(=O)N[C@@H](CC(C)C)C(=O)N[C@@H](CC(C)C)C(N)=O [FLPIIAKLLGGLL]
[6]
  MIC: 3.66 µM (≈ 5 µg/mL)
[7]
  MIC: 18.3 µM (≈ 25 µg/mL)
[8]
  MIC: 21.9 µM (≈ 30 µg/mL)

## NC(=O)[C@H](CCCN=C(N)N)NC(=O)[C@H](CCCN=C(N)N)NC(=O)[C@H](Cc1c[nH]c2ccccc12)NC(=O)[C@H](CCCN=C(N)N)NC(=O)[C@H](CCCN=C(N)N)NC(=O)[C@H](Cc1c[nH]c2ccccc12)NC(=O)[C@@H](N)Cc1ccccc1 [FWRRWRR]
[5]
  MIC: ≥ 108 µM

## CC[C@H](C)[C@H](NC(=O)CNC(=O)[C@@H](NC(=O)[C@@H](NC(=O)[C@H](Cc1cnc[nH]1)NC(=O)[C@H](CCCCN)NC(=O)[C@H](C)NC(=O)[C@H](Cc1ccccc1)NC(=O)[C@H](CC(=O)O)NC(=O)[C@H](CC(C)C)NC(=O)[C@H](CC(C)C)NC(=O)CN)C(C)C)[C@@H](C)CC)C(=O)N[C@@H](C)C(=O)N[C@@H](CO)C(=O)N[C@@H](CCCCN)C(=O)N[C@@H](CC(C)C)C(N)=O [GLLDFAKHVIGIASKL]
[9]
  MIC: 100 µM (≈ 168 µg/mL)
[10]
  MIC: ≥ 50 µM

## CC[C@H](C)[C@H](NC(=O)[C@@H](NC(=O)[C@H](C)NC(=O)[C@H](C)NC(=O)[C@@H](NC(=O)[C@H](CCCCN)NC(=O)[C@H](CCCCN)NC(=O)[C@@H](NC(=O)[C@@H](NC(=O)[C@H](C)NC(=O)[C@H](Cc1ccccc1)NC(=O)[C@H](CC(C)C)NC(=O)[C@@H](N)CCCCN)C(C)C)[C@@H](C)CC)C(C)C)C(C)C)C(=O)N[C@@H](CCCN=C(N)N)C(=O)N[C@@H](CCCN=C(N)N)C(=O)N[C@@H](CC(C)C)C(N)=O [KLFAVIKKVAAVIRRL]
[11]
  MIC: > 54.8 µM
[1]
  MIC: > 54.8 µM
[12]
  MIC: ≥ 54.8 µM
[3]
  MIC: 27.4 µM (≈ 50 µg/mL)
[4]
  MIC: ≥ 54.8 µM
[13]
  MIC: ≥ 54.8 µM
[10]
  MIC: 6.57 µM (≈ 12 µg/mL)
[14]
  MIC: ≥ 54.8 µM
[15]
  MIC: ≥ 54.8 µM

## CC[C@H](C)[C@H](NC(=O)[C@H](CCCN=C(N)N)NC(=O)[C@@H](NC(=O)[C@H](CCCN=C(N)N)NC(=O)[C@H](CCCN=C(N)N)NC(=O)[C@H](CCC(N)=O)NC(=O)[C@H](Cc1c[nH]c2ccccc12)NC(=O)[C@@H](N)Cc1ccccc1)[C@@H](C)CC)C(=O)N[C@@H](CCCN=C(N)N)C(=O)N[C@@H](CCCN=C(N)N)C(N)=O [FWQRRIRIRR]
[5]
  MIC: ≥ 168 µM

## CC[C@H](C)[C@H](NC(=O)[C@@H](N)Cc1ccccc1)C(=O)N[C@@H](Cc1c[nH]c2ccccc12)C(=O)N[C@@H](CCCN=C(N)N)C(=O)N[C@@H](Cc1c[nH]c2ccccc12)C(=O)N[C@@H](CCCN=C(N)N)C(=O)N[C@@H](Cc1c[nH]c2ccccc12)C(=O)N[C@@H](CCCN=C(N)N)C(N)=O [FIWRWRWR]
[5]
  MIC: ≥ 47.9 µM

## CC(C)C[C@@H]1NC(=O)CNC(=O)[C@H](CO)NC(=O)[C@H](CC(C)C)NC(=O)CNC(=O)[C@@H](NC(=O)[C@H](CC(C)C)NC(=O)[C@@H](NC(=O)[C@H](CCCCN)NC(=O)[C@H](CCCCN)NC(=O)CNC(=O)[C@@H](NC(=O)CNC(=O)[C@H](CC(C)C)NC(=O)[C@@H](NC(=O)CNC(=O)[C@H](CO)NC(=O)[C@H](CC(C)C)NC(=O)[C@H](CC(C)C)NC(=O)CN)C(C)C)C(C)C)C(C)C)CSSC[C@@H](C(=O)O)NC1=O [GLLSGVLGVGKKVLCGLSGLC]
[16]
  MIC: 2.37 µM (≈ 4.68 µg/mL)
[11]
  MIC: 4.75 µM (≈ 9.36 µg/mL)
[1]
  MIC: 2.37 µM (≈ 4.68 µg/mL)
[2]
  MIC: ≥ 64.9 µM
[17]
  MIC: 9.5 µM (≈ 18.7 µg/mL)
[18]
  MIC: 11.5 µM (≈ 22.6 µg/mL)
[8]
  MIC: 5.73 µM (≈ 11.3 µg/mL)

## CC[C@H](C)[C@H](NC(=O)[C@H](CC(N)=O)NC(=O)[C@H](CCCN=C(N)N)NC(=O)[C@H](CCC(N)=O)NC(=O)[C@H](Cc1c[nH]c2ccccc12)NC(=O)[C@H](CCCN=C(N)N)NC(=O)[C@@H](N)CCCN=C(N)N)C(=O)N[C@@H](CCCN=C(N)N)C(=O)N[C@@H](CCCCN)C(=O)N[C@@H](Cc1ccc(O)cc1)C(=O)N[C@@H](CCCN=C(N)N)C(=O)N[C@@H](CCCN=C(N)N)C(N)=O [RRWQRNIRKYRR]
[5]
  MIC: ≥ 140 µM

## CC[C@H](C)[C@H](NC(=O)[C@H](CC(N)=O)NC(=O)[C@H](CCCN=C(N)N)NC(=O)[C@H](CCC(N)=O)NC(=O)[C@H](Cc1c[nH]c2ccccc12)NC(=O)[C@H](C)NC(=O)[C@@H](N)Cc1ccccc1)C(=O)N[C@@H](CCCN=C(N)N)C(=O)N[C@@H](CCCCN)C(=O)N[C@H](C(=O)N[C@@H](CCCN=C(N)N)C(N)=O)C(C)C [FAWQRNIRKVR]
[5]
  MIC: ≥ 170 µM

## CC(C)C[C@H](NC(=O)[C@@H](N)Cc1ccccc1)C(=O)N[C@@H](CO)C(=O)N[C@@H](Cc1ccccc1)C(=O)N1CCC[C@H]1C(=O)N[C@H](C(=O)N[C@H](C(=O)N[C@@H](CCCCN)C(=O)N[C@H](C(=O)N[C@@H](Cc1ccc(O)cc1)C(=O)N[C@@H](Cc1ccccc1)C(=O)N1CCC[C@H]1C(=O)N[C@@H](Cc1cnc[nH]1)C(=O)O)[C@@H](C)O)[C@@H](C)O)[C@@H](C)O [FLSFPTTKTYFPH]
[1]
  MIC: 9 µM (≈ 14.3 µg/mL)
[2]
  MIC: 5 µM (≈ 7.93 µg/mL)
[3]
  MIC: 1 µM (≈ 1.59 µg/mL)
[19]
  MIC: 5 µM (≈ 7.93 µg/mL)

## CC[C@H](C)[C@H](NC(=O)[C@H](C)NC(=O)[C@H](CCCN=C(N)N)NC(=O)[C@H](Cc1ccc(O)cc1)NC(=O)[C@H](CC(C)C)NC(=O)[C@H](CC(N)=O)NC(=O)[C@H](Cc1ccc(O)cc1)NC(=O)CNC(=O)[C@H](C)NC(=O)[C@@H](NC(=O)[C@@H](NC(=O)[C@@H](NC(=O)[C@H](CCCN=C(N)N)NC(=O)[C@@H](NC(=O)[C@@H](NC(=O)[C@@H](NC(=O)[C@@H]1CCCN1C(=O)[C@H](Cc1c[nH]c2ccccc12)NC(=O)[C@H](Cc1ccccc1)NC(=O)[C@H](CCCN=C(N)N)NC(=O)[C@@H](N)CCCCN)C(C)C)C(C)C)[C@@H](C)CC)[C@@H](C)O)C(C)C)C(C)C)C(=O)N[C@@H](CCCCN)C(=O)N[C@@H](CCCCN)C(=O)N[C@@H](CCCCN)C(=O)O [KRFWPVVIRTVVAGYNLYRAIKKK]
[17]
  MIC: 1.21 µM (≈ 3.52 µg/mL)
[7]
  MIC: 0.202 µM (≈ 0.586 µg/mL)
[20]
  MIC: 1.21 µM (≈ 3.52 µg/mL)
[8]
  MIC: 6.45 µM (≈ 18.8 µg/mL)

## CC[C@H](C)[C@H](NC(=O)[C@H](CC(N)=O)NC(=O)[C@H](CCCN=C(N)N)NC(=O)[C@H](CCC(N)=O)NC(=O)[C@H](Cc1c[nH]c2ccccc12)NC(=O)[C@H](Cc1ccccc1)NC(=O)[C@@H](N)CCCN=C(N)N)C(=O)N[C@@H](CCCN=C(N)N)C(=O)N[C@@H](CCCCN)C(=O)N[C@H](C(=O)N[C@@H](CCCN=C(N)N)C(=O)N[C@@H](CCCN=C(N)N)C(N)=O)C(C)C [RFWQRNIRKVRR]
[5]
  MIC: ≥ 146 µM
